The text below walks through data of PubChem BioAssay AID1259408 (Genetic Toxicology Data Bank (GENE-TOX), 2018).

The data set relates to GENE-TOX genotoxicity assays, various organisms and cells. Put plainly: GENE-TOX mutagenicity studies. As to conditions: for call: Assay Type: In vivo carcinogenicity studies.
Setting [1] is: Species/Cell Type: Saccharomyces cerevisiae, Assay Type: Mitotic recombination or gene conversion, Assay Code: YEH-, Evaluation Type: Evaluation A (Pre-1980).
Where [2] appears, read: Species/Cell Type: Aspergillus nidulans, Assay Type: Aneuploidy, chromosome aberrations, Assay Code: ASN-, Evaluation Type: Evaluation A (Pre-1980).
Where [3] appears, read: Species/Cell Type: Nonhuman, Assay Code: CCGT, Evaluation Type: Evaluation A (Pre-1980).
The mark [4] stands for this setting: Species/Cell Type: Salmonella typhimurium (one or more of the five standard strains: TA98, TA100, TA1535, TA1537, and TA1538), Assay Type: Histidine reverse gene mutation, Ames assay, Assay Code: SAL+, Evaluation Type: Evaluation A (Pre-1980).
The mark [5] stands for this setting: Species/Cell Type: Salmonella typhimurium (one or more of the five standard strains: TA98, TA100, TA1535, TA1537, and TA1538), Assay Type: Histidine reverse gene mutation, Ames assay, Assay Code: SALT, Evaluation Type: Evaluation A (Pre-1980).
Setting [6] is: Species/Cell Type: Human, Assay Type: Sister-chromatid exchange (SCE) in vitro, Assay Code: SC1+D, Dose Response: With dose response, Evaluation Type: Evaluation B (Post-1980).
The mark [7] stands for this setting: Species/Cell Type: Nonhuman, Assay Code: CCG+, Evaluation Type: Evaluation A (Pre-1980).

Active and inactive are the calls of the source. No rule for the calls is given here. Bridge positions count the residues as written; N and C are the ends. Square brackets hold non-standard residues; d marks the D form. Peptide text beside a SMILES is read from it. * marks the point of attachment. ξ: configuration not given here. Heptanoyl(5-Me) = CCC(C)CCCC(=O)*; ξThr(3R) = C[C@@H](O)C(N)C(=O)O; dDab = NCC[C@@H](N)C(=O)O; Dab = NCC[C@H](N)C(=O)O

For `CC1(C)C(C=C(Cl)Cl)C1C(=O)OC(C#N)c1cccc(Oc2ccccc2)c1` (stereo not given), the mutagenic call reads like this: (Species/Cell Type: Human diploid fibroblasts, Assay Type: Unscheduled DNA synthesis (UDS) in vitro, DNA effects, Assay Code: UDH-, Evaluation Type: Evaluation A (Pre-1980)) “inactive; negative”; (Species/Cell Type: Mammalian polychromatic erythrocytes, Assay Type: Micronucleus test, chromosome aberrations, Assay Code: MNT+, Evaluation Type: Evaluation B (Post-1980)) “active; positive”; under setting [1], “inactive; negative”. Consider `CCN(CC)Cc1cc(Br)ccc1OCC(=O)N/N=C\c1ccc(OC)cc1`, for which the mutagenic call (Species/Cell Type: Saccharomyces cerevisiae, Assay Type: Reverse gene mutation, Assay Code: YERT, Evaluation Type: Evaluation A (Pre-1980)) is “no conclusion”. Regarding `CC(=O)[O-].CC(=O)[O-].O.O.O.[Pb+2]`, the mutagenic call was “active; positive” (Species/Cell Type: Allium cepa, Assay Type: Chromosome aberrations, Assay Code: ALC+D, Dose Response: With dose response, Evaluation Type: Evaluation A (Pre-1980)) and “no conclusion” (Species/Cell Type: Nonhuman, Assay Type: Sister-chromatid exchange (SCE) in vitro, Assay Code: SC2T, Evaluation Type: Evaluation B (Post-1980)). With `Nc1ccc(S(N)(=O)=O)cc1`, the mutagenic call reads like this: under setting [2], “inactive; negative”; (Species/Cell Type: Aspergillus nidulans, Assay Type: Mitotic recombination, Assay Code: ASG+, Evaluation Type: Evaluation A (Pre-1980)) “active; positive”; (Species/Cell Type: Neurospora crassa, Assay Type: Aneuploidy, chromosome aberrations, Assay Code: NEN-, Evaluation Type: Evaluation A (Pre-1980)) “inactive; negative”. Besides, under setting [3], the call is reported as “no conclusion”. As to `Cc1c2ccncc2c(C)c2c1[nH]c1ccc(N)cc12`, where the note is “Species/Cell Type: Chinese hamster ovary (CHO) cells, Assay Type: Forward gene mutation at the HPRT locus, Assay Code: CHO+, Evaluation Type: Evaluation B (Post-1980)”, the mutagenic call is “active; positive”. As for `CC(C)c1ccccc1`, the mutagenic call is, setting by setting: under setting [1], “inactive; negative”; (Species/Cell Type: Salmonella typhimurium (one or more of the five standard strains: TA98, TA100, TA1535, TA1537, and TA1538), Assay Type: Histidine reverse gene mutation, Ames assay, Assay Code: SAL-, Evaluation Type: Evaluation A (Pre-1980)) “inactive; negative”. Turning to `Cc1c(C)c2c(c(C)c1O)CC[C@@](C)(CCC[C@H](C)CCC[C@H](C)CCCC(C)C)O2`, the mutagenic call runs as follows: (Species/Cell Type: Human lymphocytes, Assay Type: Sister-chromatid exchange (SCE) in vitro, Assay Code: SCLT, Evaluation Type: Evaluation B (Post-1980)) “no conclusion”; (Species/Cell Type: Human, Assay Type: Sister-chromatid exchange (SCE) in vitro, Assay Code: SC1T, Evaluation Type: Evaluation B (Post-1980)) “no conclusion”. For the compound `O=C1C=CCO1`, the mutagenic call (Species/Cell Type: Bacillus subtilis (H17 vs M45), Assay Type: Rec-assay, spot test, DNA effects (bacterial DNA repair), Assay Code: REW-, Evaluation Type: Evaluation A (Pre-1980)) was “inactive; negative”.

Consider `CC(=O)c1ccc([N+](=O)[O-])[nH]1`, for which the mutagenic call under setting [4] is “active; positive”. For the compound `[Cl][W]([Cl])([Cl])([Cl])([Cl])[Cl]`, under “Species/Cell Type: Syrian hamster embryo (SA7/SHE) cells, Assay Type: Cell transformation, viral enhanced, Assay Code: CT7-, Evaluation Type: Evaluation A (Pre-1980)”, the mutagenic call was “inactive; negative”. Take `COc1cc2cc3c4cc(OC)c(OC)cc4cc[n+]3c(C)c2cc1OC` (tested in a mixture with another compound): the mutagenic call under setting [5] is “no conclusion”.

In the case of `CNc1nncc2ccccc12`, the mutagenic call by setting is: under setting [6], “active; positive”; (Species/Cell Type: Nonhuman, Assay Type: Sister-chromatid exchange (SCE) in vivo, Assay Code: SC3+, Evaluation Type: Evaluation B (Post-1980)) “active; positive”. For `O=[N+]([O-])c1ccc(/C=N\O)o1`, the mutagenic call runs as follows: (Species/Cell Type: Escherichia coli WP2, Assay Type: Tryptophan reverse gene mutation, Assay Code: WP2-, Evaluation Type: Evaluation A (Pre-1980)) “inactive; negative”; (Species/Cell Type: Escherichia coli WP2 UVRA, Assay Type: Tryptophan reverse gene mutation, Assay Code: WPU+D, Dose Response: With dose response, Evaluation Type: Evaluation A (Pre-1980)) “active; positive”; under setting [4], “active; positive”. For the compound `O=C(O)[C@@H]1CCCN1`, the mutagenic call (Species/Cell Type: Salmonella typhimurium, Assay Type: Forward and reverse gene mutation, host-mediated assay, Assay Code: HMA-, Evaluation Type: Evaluation A (Pre-1980)) was “inactive; negative”. `Nc1ccc2nc[nH]c2c1`: under setting [2], the mutagenic call was “inactive; negative”. Take `CCC(C)CCCC(=O)N[C@@H](CCN)C(=O)N[C@H](C(=O)N[C@@H](CCN)C(=O)N[C@H]1CCNC(=O)C([C@@H](C)O)NC(=O)[C@@H](CCN)NC(=O)[C@H](CCN)NC(=O)[C@@H](CC(C)C)NC(=O)[C@@H](CC(C)C)NC(=O)[C@H](CCN)NC1=O)[C@@H](C)O` (stereo partly drawn) ({Heptanoyl(5-Me)}-[Dab]T[Dab][Dab][Dab][dL][dL][Dab][dDab][ξThr(3R)]; lactam 4-C): the mutagenic call is “inactive; negative” (Species/Cell Type: Escherichia coli polA (W3119 vs P3478), Assay Type: Rec-assay, DNA effects (bacterial DNA repair), Assay Code: RE1-, Evaluation Type: Evaluation A (Pre-1980)); “inactive; negative” (Species/Cell Type: Human lymphocytes, Assay Type: Sister-chromatid exchange (SCE) in vitro, Assay Code: SCL-, Evaluation Type: Evaluation B (Post-1980)); “inactive; negative” (Species/Cell Type: Human, Assay Type: Sister-chromatid exchange (SCE) in vitro, Assay Code: SC1-, Evaluation Type: Evaluation B (Post-1980)).

For `CC(=O)N(O)c1ccc(/C=C\c2ccccc2)cc1`, for the setting “Species/Cell Type: Human diploid fibroblasts, Assay Type: Unscheduled DNA synthesis (UDS) in vitro, DNA effects, Assay Code: UDH+, Evaluation Type: Evaluation A (Pre-1980)”, the mutagenic call was “active; positive”. The call under setting [7] was “active; positive”. Turning to `[O-]/[N+](=N\O)c1ccccc1`, the call under setting [7] is “active; positive”. For the same compound, under “Species/Cell Type: Vicia faba, Assay Type: Chromosome aberrations, Assay Code: VIC+, Evaluation Type: Evaluation A (Pre-1980)”, the mutagenic call is “active; positive”. Regarding `O=C(O)c1ccc2ccccc2n1`, under setting [5], the mutagenic call was “no conclusion”. For `Cn1ccc(CO)c1`, the mutagenic call is, setting by setting: (Species/Cell Type: Human lymphocytes, Assay Type: Sister-chromatid exchange (SCE) in vitro, Assay Code: SCL+D, Dose Response: With dose response, Evaluation Type: Evaluation B (Post-1980)) “active; positive”; under setting [6], “active; positive”.

In the case of `CC(C(=O)O)c1ccc(-c2ccccc2)c(F)c1` (stereo not given), the mutagenic call (Species/Cell Type: Human lymphocytes, Assay Type: Sister-chromatid exchange (SCE) in vivo, Assay Code: SCY+, Evaluation Type: Evaluation B (Post-1980)) was “active; positive”. Consider `O=c1c2ccc3cccc4c(=O)cc(c5ccccc15)-c2c34`, for which the mutagenic call by setting is: (Species/Cell Type: Chinese hamster lung (V79) cells, Assay Type: Forward gene mutation at the HPRT or ouabain locus, Assay Code: V79-, Evaluation Type: Evaluation A (Pre-1980)) “inactive; negative”; under setting [5], “no conclusion”. The call under setting [3] was “no conclusion”. With `c1ccc2nc3c(ccc4ccccc43)cc2c1`, the mutagenic call (Species/Cell Type: Nonhuman, Assay Type: Sister-chromatid exchange (SCE) in vitro, Assay Code: SC2+D, Dose Response: With dose response, Evaluation Type: Evaluation B (Post-1980)) is “active; positive”. Take `CC1CC2=C(CCC2=O)c2ccc3ccccc3c21` (stereo not given): under setting [5], the mutagenic call is listed as “no conclusion”. For `NC[C@@H](O)CCl`, under “Species/Cell Type: Rodents, Sex: Male, Assay Type: Dominant lethal test, Assay Code: DLT-, Evaluation Type: Evaluation A (Pre-1980)”, the mutagenic call was “inactive; negative”. For `Cc1cc2ccccc2c2cc(F)c3ccccc3c12`, the mutagenic call under setting [5] is “no conclusion”.

Regarding `O=BOO`, for the setting “Species/Cell Type: Escherichia coli polA (W3119 vs P3478), Assay Type: Rec-assay, DNA effects (bacterial DNA repair), Assay Code: RE1+, Evaluation Type: Evaluation A (Pre-1980)”, the mutagenic call is “active; positive”.
